# Test results as given in ChEMBL document CHEMBL4665861, “Chemical constituents from Macleaya cordata (Willd) R. Br. and their phenotypic functions against a Parkinson's disease patient-derived cell line” (Bioorg Med Chem, 2020).
# The source made the active and inactive calls. The calls are words filed in the database; no cut-off is given here.
# Assays:
# [1] = (§1) Induction of cytological phenotypic changes in cellular organelles in Parkinson's disease patient human ONS derived C1200080013 cells assessed as perturbation of auto-phagosomal LC3b marker intensity in inner region of cytoplasm by measuring log2ratio at 30 uM incubated for 24 hrs by anti-LC3b1/335/DAPI staining based fluorescence microscopic analysis; assay type: tissue-based; conditions: c1200080013, 24 h
# [2] = Cytotoxicity against Parkinson's disease patient human ONS derived C1200080013 cells assessed as cell death at 30 uM incubated for 24 hrs; assay type: cell-based; conditions: c1200080013, 24 h
# C1200080013 = experiment: (§2) Induction of cytological phenotypic changes in cellular organelles in Parkinson's disease patient human ONS derived C1200080013 cells assessed as perturbation in mitochondrial features by measuring punctuate and fragmented mitochondrial morphology at 30 uM incubated for 24 hrs by MitoTrackerOrange CMTMRos/DAPI staining based fluorescence microscopic analysis; assay type: functional, cell-based
# [3] = as §1, with “EEA1” for “auto-phagosomal LC3b”, “in” for “in inner region of”, “LysoTrackerRed DND-99/anti-EEA1” for “anti-LC3b1/335/DAPI”; assay type: tissue-based; conditions: c1200080013, 24 h
# [4] = as §1, with “mitochondria” for “auto-phagosomal LC3b”, “MitoTrackerOrange CMTMRos/DAPI” for “anti-LC3b1/335/DAPI”; assay type: functional
# [5] = Induction of cytological phenotypic changes in cellular organelles in Parkinson's disease patient human ONS derived C1200080013 cells assessed as changes in mitochondria marker intensity in inner region of cytoplasm at 20 uM incubated for 24 hrs by MitoTrackerOrange CMTMRos/DAPI staining based fluorescence microscopic analysis; conditions: c1200080013, 24 h
# [6] = as §1, with “features” for “LC3b marker intensity in inner region of cytoplasm”, “depletion in LC3b staining intensity” for “log2ratio”; assay type: tissue-based; conditions: c1200080013, 24 h
# [7] = Induction of cytological phenotypic changes in cellular organelles in Parkinson's disease patient human ONS derived C1200080013 cells assessed as changes in features associated with early endosome antigen1 by measuring alteration in EEA1 staining intensity at 10 uM incubated for 24 hrs by LysoTrackerRed DND-99/anti-EEA1 staining based fluorescence microscopic analysis; conditions: c1200080013, 24 h
# [8] = as §2, with “of mitochondria” for “in mitochondrial”, “reduction in MitoTracker staining intensity” for “punctuate and fragmented mitochondrial morphology”; conditions: c1200080013, 24 h
# [9] = Induction of cytological phenotypic changes in cellular organelles in Parkinson's disease patient human ONS derived C1200080013 cells assessed as perturbation of early endosomal features by measuring reduction in EEA1 staining intensity at 30 uM incubated for 24 hrs by LysoTrackerRed DND-99/anti-EEA1 staining based fluorescence microscopic analysis; assay type: tissue-based; conditions: c1200080013, 24 h
smiles,measurement,setting,value
COc1ccc2c(c1OC)C(C(C)O)N(C)c1c-2ccc2cc3c(cc12)OCO3 (configuration not stated),log(ratio),[1],-0.99
COc1cc2c(c3c[n+](C)c4c5cc6c(cc5ccc4c13)OCO6)OCO2,Activity,[2],Toxic
COc1ccc2c(c1OC)C(CO)N(C)c1c-2ccc2cc3c(cc12)OCO3 (configuration not stated),Activity,C1200080013,Active
same,log(ratio),[3],-0.73
same,log(ratio),[4],-0.85
C=C(C)[C@H]1Cc2c(ccc3c2O[C@@H]2COc4cc(OC)c(OC)cc4[C@@H]2C3=O)O1 [ROTENONE],Activity,[5],Toxic
C[n+]1cc2c3c(ccc2c2ccc4cc5c(cc4c21)OCO5)OCO3 [SANGUINARIUM],Activity,[2],Toxic
CCN(CC)CCCC(C)Nc1ccnc2cc(Cl)ccc12 (configuration not stated) [CHLOROQUINE],Activity,[6],Non-Toxic
same,Activity,[7],Toxic
COc1ccc2c(c[n+](C)c3c4cc5c(cc4ccc23)OCO5)c1OC [CHELERYTHRINE],Activity,[2],Toxic
COc1cc(/C=C/C(=O)O)ccc1O[C@@H]1O[C@H](CO)[C@@H](O)[C@H](O)[C@H]1O,Activity,[6],Non-Toxic
same,Activity,[8],Non-Toxic
same,Activity,[9],Non-Toxic
COc1cc(OC)c2c(c[n+](C)c3c4cc5c(cc4ccc23)OCO5)c1OC,Activity,[2],Toxic
COc1cc(/C=C/C(=O)O[C@@H]2C[C@](O)(C(=O)O)C[C@@H](O)[C@H]2O)ccc1O,Activity,[6],Non-Toxic
same,Activity,[8],Non-Toxic
same,Activity,[9],Non-Toxic
